Some test systems named below: OVCAR-3 ovarian; A498 renal; COLO 205 colon; SF-539 CNS; U251 CNS; UACC-62 melanoma; NCI-H23 lung; SNB-19 CNS; K-562 leukemia; HL-60(TB) leukemia.
What all share (assay): NCI tumour cell line growth inhibition, 48 h

Structures are written as SMILES. Values joined by “and” are separate entries in the source; they are usually repeats but may differ in a detail not shown here. Equal entries are not always repeated.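 Protocol summary: plate cells (96-well), add compound at 5 concentrations, incubate 48 h, interpolate endpoints linearly. The concentration for 50% growth inhibition is given as GI50. TGI: total growth inhibition.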

On to `Nc1n[nH]c(CCc2nc(N)n[nH]2)n1`, for which the TGI in the assay with OVCAR-3 ovarian, in the assay with A498 renal, in the assay with COLO 205 colon, in the assay with SF-539 CNS, in the assay with U251 CNS and with UACC-62 melanoma was over 100 µM throughout. The TGI in the assay with NCI-H23 lung, with SNB-19 CNS, in the assay on K-562 leukemia and in the assay on HL-60(TB) leukemia was over 100 µM in each case.
As for `Cc1ccc(-c2nc(N3CCCNCC3)c3oc(-c4ccc(C)cc4)nc3n2)cc1`, the GI50 with OVCAR-3 ovarian is 1.73 µM; in the assay with A498 renal, 15.8 µM; in the assay with COLO 205 colon it was 1.89 µM; in the assay on SF-539 CNS it was 1.76 µM; in the assay on U251 CNS, 1.76 µM; in the assay with UACC-62 melanoma, 1.67 µM. For the same molecule, the GI50 with NCI-H23 lung is 19.9 µM; in the assay with SNB-19 CNS, 1.77 µM; in the assay with K-562 leukemia it was 0.946 µM; with HL-60(TB) leukemia, 0.179 µM. For the same molecule, the TGI stood at 3.1 µM with OVCAR-3 ovarian; 31.7 µM in the assay with A498 renal; 3.55 µM with COLO 205 colon; 3.29 µM in the assay on SF-539 CNS; 3.18 µM in the assay with U251 CNS; 3.08 µM in the assay on UACC-62 melanoma. Also, the TGI in the assay on NCI-H23 lung came to 88.2 µM; in the assay on SNB-19 CNS, 3.25 µM; in the assay with K-562 leukemia, 2.68 µM; in the assay on HL-60(TB) leukemia it was 0.371 µM.
Take `Cn1cnc([N+](=O)[O-])c1Sc1ncn[nH]1`: the GI50 in the assay with OVCAR-3 ovarian is 47.3 µM; with A498 renal, over 100 µM; in the assay on COLO 205 colon, 28.4 µM; with SF-539 CNS, over 100 µM; in the assay with U251 CNS, over 100 µM; in the assay with UACC-62 melanoma, 96.3 µM. The GI50 was 99.5 µM in the assay with NCI-H23 lung, over 100 µM in the assay on SNB-19 CNS, 32.3 µM in the assay on K-562 leukemia and 75.5 µM in the assay with HL-60(TB) leukemia. Further, the TGI in the assay with OVCAR-3 ovarian, in the assay with A498 renal, in the assay with COLO 205 colon, in the assay on SF-539 CNS, in the assay with U251 CNS and in the assay on UACC-62 melanoma was over 100 µM in each case. The TGI with NCI-H23 lung, with SNB-19 CNS, in the assay on K-562 leukemia and in the assay with HL-60(TB) leukemia was over 100 µM throughout.
In the case of `CCOC(=O)c1c(C)c(C)n2c1NC(=O)C2`, the TGI in the assay on OVCAR-3 ovarian is over 100 µM; with A498 renal it was over 100 µM; in the assay with COLO 205 colon, over 100 µM; in the assay on SF-539 CNS, over 100 µM; with U251 CNS, 97.7 µM; in the assay with UACC-62 melanoma it was over 100 µM. Further, the TGI is over 68.5 µM in the assay on NCI-H23 lung, over 100 µM in the assay with SNB-19 CNS, over 100 µM in the assay with K-562 leukemia and over 100 µM in the assay with HL-60(TB) leukemia.
As for `O=C1c2nc3n(c2C(=O)c2c1nc1n2CCC1)CCC3`, the GI50 in the assay on OVCAR-3 ovarian was 3.42 µM; with COLO 205 colon, 4.13 µM; in the assay with UACC-62 melanoma, 2.21 µM; with NCI-H23 lung it was 3.08 µM. The TGI in the assay with OVCAR-3 ovarian was 9.74 µM and 7.87 µM; in the assay with A498 renal it was 29.6 µM; in the assay on COLO 205 colon, 18.5 µM; with SF-539 CNS, 8.77 µM and 13.5 µM; in the assay on U251 CNS it was 34 µM; in the assay on UACC-62 melanoma, 5.5 µM and 3.65 µM. Besides, the TGI with NCI-H23 lung is 7.09 µM; with SNB-19 CNS, 27.9 µM; in the assay with K-562 leukemia, over 57.8 µM; in the assay on HL-60(TB) leukemia, over 36.6 µM.
`O=S(=O)(NCCNc1nccc(-c2c(-c3ccc(F)cc3)nc3sccn23)n1)c1ccccc1`: the GI50 is 11.3 µM in the assay on OVCAR-3 ovarian; 5.23 µM with A498 renal; 2.23 µM in the assay with COLO 205 colon; 19 µM in the assay on SF-539 CNS; 6.45 µM in the assay on U251 CNS; 5.13 µM in the assay with UACC-62 melanoma. Further, the GI50 is 16.2 µM in the assay on NCI-H23 lung, 9.88 µM in the assay on SNB-19 CNS, 4.35 µM with K-562 leukemia and 16.9 µM in the assay with HL-60(TB) leukemia. Besides, the TGI is 76 µM in the assay on OVCAR-3 ovarian; over 100 µM with A498 renal; over 100 µM with COLO 205 colon; over 100 µM with SF-539 CNS; 26.9 µM in the assay on U251 CNS; 23.2 µM with UACC-62 melanoma. Besides, the TGI with NCI-H23 lung was over 100 µM; in the assay on SNB-19 CNS it was over 100 µM; in the assay on K-562 leukemia, over 100 µM; with HL-60(TB) leukemia, 61.7 µM.
As to `CCN(CC)CCOc1ccc(C(=O)/C=C\c2ccc(Cl)cc2Cl)cc1`, the GI50 in the assay with OVCAR-3 ovarian is 3.84 µM; in the assay on A498 renal it was 12.3 µM; in the assay with COLO 205 colon, 1.95 µM; in the assay with SF-539 CNS, 4.05 µM; in the assay with U251 CNS, 7.16 µM; in the assay with UACC-62 melanoma, 2.08 µM. Besides, the GI50 is 7.15 µM with NCI-H23 lung, 6.81 µM in the assay on SNB-19 CNS, 2.41 µM with K-562 leukemia and 2.67 µM with HL-60(TB) leukemia. For the same molecule, the TGI turned out to be 14.3 µM in the assay on OVCAR-3 ovarian; 24.7 µM in the assay with A498 renal; 5.15 µM in the assay on COLO 205 colon; 16.4 µM in the assay on SF-539 CNS; 21.3 µM in the assay with U251 CNS; 4.71 µM in the assay on UACC-62 melanoma. Also, the TGI with NCI-H23 lung is 22.1 µM; in the assay on SNB-19 CNS, 24.4 µM; in the assay with K-562 leukemia, 9.13 µM; in the assay on HL-60(TB) leukemia it was 6.25 µM.
For `CNC(=O)OCC1C2=C(C(=O)C(C)=C(N)C2=O)N2CC3C(N3C)C12OC` (configuration not stated), the TGI was over 100 µM with OVCAR-3 ovarian; 34.2 µM in the assay on A498 renal; 31.7 µM in the assay with COLO 205 colon; 87.5 µM with SF-539 CNS; 45.7 µM in the assay on U251 CNS; 22.2 µM with UACC-62 melanoma. In addition, the TGI was 16.3 µM in the assay on NCI-H23 lung, over 100 µM with SNB-19 CNS, over 100 µM in the assay with K-562 leukemia and 21.1 µM in the assay on HL-60(TB) leukemia.
With `O=[N+]([O-])c1ccc(S(=O)(=O)Cc2ccccc2)c2nonc12`, the TGI in the assay with OVCAR-3 ovarian is 37.2 µM; in the assay on A498 renal it was over 100 µM; in the assay on COLO 205 colon, 31.1 µM; in the assay with SF-539 CNS, 35.5 µM; in the assay with U251 CNS, 36.1 µM; with UACC-62 melanoma, 35.1 µM. Moreover, the TGI was 35.5 µM with NCI-H23 lung, over 100 µM in the assay with SNB-19 CNS, 76.7 µM in the assay with K-562 leukemia and 45.9 µM in the assay on HL-60(TB) leukemia.
Turning to `O=C(Nc1ccn(CCI)c(=O)n1)c1ccccc1`, the TGI in the assay with OVCAR-3 ovarian, with A498 renal, in the assay on COLO 205 colon, in the assay with SF-539 CNS, with U251 CNS and in the assay with UACC-62 melanoma was over 100 µM in each case. Besides, the TGI with K-562 leukemia and in the assay on HL-60(TB) leukemia was over 100 µM each time.

These data come from PubChem BioAssay (NCI).
